Data reported in patent US7439363B2, “Substituted indazoly(indoly)maleimide derivatives as kinase inhibitors” (Janssen Parmaceutica N.V., priority 2003, dated 2008).

Experiments:
Assay type in all cases: biochemical
PKC isoform γ = PKC isoform γ (Homo sapiens, UniProt P05129); test: Protein Kinase C histone-based assay, PKC gamma; conditions: histone III substrate, 30 μM ATP
Protocol: (§1) Protein Kinase C Histone-Based Assay
(§2) Compounds were evaluated for PKC selectivity using histone III as the substrate. The PKC isoforms α, β-II or γ were added to a reaction mixture that contained 20 mM HEPES, (pH 7.4), 940 μM CaCl2, 10 mM MgCl2, 1 mM EGTA. 100 μg/mL phosphatidylserine, 20 μg/mL diacylglycerol, 30 μM ATP, 1 μCi (^33P)ATP and 200 μg/mL histone III. The reaction was incubated for 10 min at 30° C. Reactions were terminated by TCA precipitation and spotting on Whatman P81 filters. Filters were washed in 75 mM phosphoric acid and the radioactivity quantified by liquid scintillation counting.

[1] = target: T1, recombinant rabbit GSK-3β protein (Oryctolagus cuniculus, UniProt G1T8E2); test: Glycogen Synthase Kinase-3 assay (PPI-2 phosphorylation); conditions: for IC50: PPI-2 substrate, 33P-ATP
T1 construct: purchased New England Biolabs
Protocol: Glycogen Synthase Kinase-3 Assay
Compounds were tested for the ability to inhibit recombinant rabbit GSK-3β protein using the following protocol. The test compound was added to a reaction mixture containing Protein phosphatase inhibitor-2 (PPI-2) (Calbiochem) (45 ng), rabbit GSK-3β protein (New England Biolabs) (0.75 units) and ^33P-ATP (1 μCi) in 50 mM Tris-HCl (pH 8.0), 10 mM MgCl2, 0.1% BSA, 1 mM DTT and 100 μM Sodium Vanadate. The mixture was reacted for 90 minutes at 30° C. to allow phosphorylation of the PPI-2 protein and then the protein in the reaction was precipitated using 10% TCA. The precipitated protein was collected on filter plates (MultiScreen-DV/Millipore), which were subsequently washed. Finally, the radioactivity was quantified using a TopCount Scintillation Counter (Packard). […] Staurosporine or Valproate, known inhibitors of GSK-3β, were used as a positive control for screening.

PKC isoform α = PKC isoform α (Homo sapiens, UniProt P17252); test: Protein Kinase C histone-based assay, PKC alpha; conditions: histone III substrate, 30 μM ATP
Protocol: as §1, §2

PKC isoform β-II = PKC isoform β-II (Homo sapiens, UniProt P05771); test: Protein Kinase C histone-based assay, PKC beta II; conditions: histone III substrate, 30 μM ATP
Protocol: as §1, §2

T1 sequence (G1T8E2 1-432): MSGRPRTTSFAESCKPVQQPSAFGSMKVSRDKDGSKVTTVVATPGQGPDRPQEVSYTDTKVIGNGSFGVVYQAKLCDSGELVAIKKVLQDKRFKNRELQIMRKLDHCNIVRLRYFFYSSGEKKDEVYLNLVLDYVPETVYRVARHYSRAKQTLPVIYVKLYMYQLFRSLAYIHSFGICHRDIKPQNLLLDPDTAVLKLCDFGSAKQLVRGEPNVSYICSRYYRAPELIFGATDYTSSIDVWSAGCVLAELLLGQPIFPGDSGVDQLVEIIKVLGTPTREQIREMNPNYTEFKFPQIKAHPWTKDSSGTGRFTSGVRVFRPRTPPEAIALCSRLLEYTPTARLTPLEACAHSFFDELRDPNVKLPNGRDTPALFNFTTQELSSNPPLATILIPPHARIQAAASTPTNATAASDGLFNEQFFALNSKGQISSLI
PKC isoform β-II, sequence (P05771 1-673 isoform P05771-2): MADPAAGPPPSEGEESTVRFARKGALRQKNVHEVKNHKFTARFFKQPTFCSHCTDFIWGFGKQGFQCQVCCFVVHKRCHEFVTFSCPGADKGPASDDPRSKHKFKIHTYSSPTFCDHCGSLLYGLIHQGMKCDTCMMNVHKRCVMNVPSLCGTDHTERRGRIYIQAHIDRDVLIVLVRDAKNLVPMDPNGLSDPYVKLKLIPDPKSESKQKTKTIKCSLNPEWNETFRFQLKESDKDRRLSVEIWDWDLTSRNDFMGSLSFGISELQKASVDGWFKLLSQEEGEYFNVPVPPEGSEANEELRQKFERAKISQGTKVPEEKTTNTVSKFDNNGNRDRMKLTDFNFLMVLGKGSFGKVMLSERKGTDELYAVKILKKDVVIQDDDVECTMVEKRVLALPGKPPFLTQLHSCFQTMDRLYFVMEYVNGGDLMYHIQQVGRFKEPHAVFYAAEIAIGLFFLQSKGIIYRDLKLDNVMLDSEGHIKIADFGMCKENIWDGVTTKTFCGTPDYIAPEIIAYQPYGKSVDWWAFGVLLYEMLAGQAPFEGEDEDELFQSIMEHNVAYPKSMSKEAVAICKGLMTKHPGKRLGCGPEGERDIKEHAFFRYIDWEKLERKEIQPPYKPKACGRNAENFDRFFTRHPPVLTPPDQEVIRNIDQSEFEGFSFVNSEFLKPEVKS

| SMILES | IC50 (PKC isoform γ) [µM] | IC50 [1] [µM] | IC50 (PKC isoform α) [µM] | IC50 (PKC isoform β-II) [µM] | GSK-3β Assay Activity, % @ 1 μM ([1]; @ 1 μM) [% @ 1 μM] |
| --- | --- | --- | --- | --- | --- |
| Cc1nnnn1CCCn1nc(C2=C(c3cn(C)c4ccc(Cl)cc34)C(=O)NC2=O)c2ccccc21 [Compound 10] | 0.602 | 0.005 | 0.424 | 0.009 | – |
| Cn1cc(C2=C(c3nn(CCCn4ccnn4)c4ccccc34)C(=O)NC2=O)c2cc(Cl)ccc21 [Compound 2, 3-(5-Chloro-1-methyl-1H-indole-3-yl)-4-[1-(3-[1,2,3]triazole-1-yl-propyl)-1H-indzol-3-yl]-pyrrole-2,5-dione] | 0.395 | 0.003 | 1.21 | 0.046 | – |
| Cn1cc(C2=C(c3nn(CCc4nnn[nH]4)c4ccccc34)C(=O)NC2=O)c2cc(Cl)ccc21 [Compound 11, 3-(5-Chloro-1-methyl-1H-indol-3-yl)-4-{1-[2-(1H-tetrazol-5-yl)-ethyl]-1H-indazol-3-yl)-pyrrole-2,5-dione] | 1.93 | 0.005 | 1.36 | 0.123 | – |
| Cc1nnn(CCCn2nc(C3=C(c4cn(C)c5ccc(Cl)cc45)C(=O)NC3=O)c3ccccc32)n1 [Compound 9] | 1.42 | 0.005 | 2.98 | 0.041 | – |
| O=C1NC(=O)C(c2nn(CCCn3ncnn3)c3ccccc23)=C1c1cn(-c2cccnc2)c2ccccc12 [Compound 7, 3-(1-Pyridin-3-yl-1H-indol-3-yl)-4-[1-(3-tetrazol-2-yl-propyl)-1H-indazole-3-yl]-pyrrole-2,5-dione] | 1.45 | 0.027 | 0.451 | 0.044 | – |
| Cn1cc(C2=C(c3nn(CCCn4ncnn4)c4ccccc34)C(=O)NC2=O)c2cc(Cl)ccc21 [Compound 3, 3-(5-Chloro-1-methyl-1H-indol-3-yl)-4-[1-(3-tetrazol-2-yl-propyl)-1H-indazol-3-yl]pyrrole-2,5-dione] | 1.01 | 0.004 | 2.35 | 0.045 | – |
| O=C1NC(=O)C(c2nn(CCCn3cnnn3)c3ccccc23)=C1c1cn(-c2cccnc2)c2ccccc12 [Compound 8, 3-(1-Pyridin-3-yl-1H-indol-3-yl)-4-[1-(3-tetrazol-1-yl-propyl)-1H-indazol-3-yl]-pyrrole-2,5-dione] | 4.3 | 0.034 | 1.04 | 0.052 | – |
| Cn1cc(C2=C(c3nn(CCCn4cnnn4)c4ccccc34)C(=O)NC2=O)c2cc(Cl)ccc21 [Compound 4, 3-(5-Chloro-1-methyl-1H-indol-3-yl)-4-[1-(3-tetrazol-1-yl-propyl)-1H-indazol-3-yl]-pyrrole-2,5-dione] | 0.544 | 0.004 | 0.505 | 0.035 | – |
| O=C1NC(=O)C(c2nn(CCc3nnn[nH]3)c3ccccc23)=C1c1cn(-c2cccnc2)c2ccc(Cl)cc12 [Compound 12] | 0.226 | 0.107 | 0.554 | 0.069 | – |
| O=C1NC(=O)C(c2nn(CCCn3ncnn3)c3ccccc23)=C1c1cn(-c2ccc3ccccc3c2)c2ccccc12 [Compound 5, 3-(1-Naphthalen-2-yl-1H-indole-3-yl)-4-[1-(3-tetrazol-2-yl-propyl)-1H-indazol-3-yl]-pyrrole-2,5-dione] | 1.7 | 0.776 | 0.542 | 0.025 | – |
| Cn1cc(C2=C(c3nn(CCCn4ccnc4)c4ccccc34)C(=O)NC2=O)c2cc(Cl)ccc21 [Compound 1, 3-(5-Chloro-1-methyl-1H-indol-3-yl)-4-[1-(3-imidazol-1-yl-propyl)-1H-indazol-3-yl]-pyrrole-2,5-dione] | 0.476 | 0.004 | 0.567 | 0.015 | – |
| O=C1NC(=O)C(c2nn(CCCn3cnnn3)c3ccccc23)=C1c1cn(-c2ccc3ccccc3c2)c2ccccc12 [Compound 6, 3-(1-Naphthalen-2-yl-1H-indol-3-yl)-4-[1-(3-tetrazol-1-yl-propyl)-1H-indazol-3-yl]pyrrole-2,5-dione] | 1.11 | – | 0.326 | 0.022 | 29 |
